Test results from patent publication US6319951A, “Use of 3-amino-4-hydroxybenzoic acid for the treatment of retroviral infections” (priority 1996, dated 2001).
Values after ≈ are worked out from the molar mass of the structure shown. Values joined by “and” are separate entries in the source; they are usually repeats but may differ in a detail not shown here. Equal values may be shown once. “Also recorded” adds a separate entry of the source. Read-outs that look alike come from different tables or passages of the source.

Key:
HIV [1] = experiment: inactivation of HIV cultivated in human lymphocytes (minimum inhibitory concentration); format: cell-based
human lymphocytes = experiment: adverse effect on human lymphocytes in HIV culture; format: cell-based; conditions: at minimum concentration of 0.5 mg/l
[2] = Therapeutic Index determination
Source text: The Therapeutic Index of 3-amino-4-hydroxybenzoic acid has been determined. International pharmacological principles demand that for human safety the Therapeutic Index of any drug to be used for human treatment should be greater than a unit, i.e. 1. If the Index is greater than 1, patients can take the drug without medical supervision and without experiencing adverse effects. There are, however, cases where therapeutic indices are less than 1 where the benefits outweigh the risks. This holds in the administration of anti-cancer drugs which mandate the availability of competent medical supervision. The reason behind this is that the drugs are supposed to destroy cancerous human cells. The difference between normal human cells and cancerous human cells is, as expected, minimal. It is expected that the difference between HIV and normal human cells would be colossal.
Therapeutic Index for 3-amino-4-hydroxybenzoic acid is: [formula]
The index for 3-amino-4-hydroxybenzoic acid is 40,000 which is good mathematical proof to back the safety of 3-amino-4-hydroxybenzoic acid as a drug to treat HIV.

Herpes simplex = experiment: antimicrobial activity, Herpes simplex
HIV [3] = experiment: antimicrobial activity, HIV
Neisseria gonorrhoeae = experiment: antimicrobial activity, Neisseria gonorrhoeae
Treponema pallidum = experiment: antimicrobial activity, Treponema pallidum
Escherchia coli = experiment: antimicrobial activity, Escherichia coli
Candida albicans = experiment: antimicrobial activity, fungi, Candida albicans
Trichomona vapinalis = experiment: antimicrobial activity, protozoan Trichomonas
HIV [4] = experiment: dipping HIV into aqueous 3-amino-4-hydroxybenzoic acid; conditions: aqueous solution, 30 seconds
Source text: This duration is too short to be an inhibition of protein synthesis. It could only be an irreversible binding of the viral coat at gp120, gp160 or gp41 thereby making the virus fail to attach itself to the CD4 surface markers of target cells. […] It may also inactivate the lytic enzyme essential for HIV entry into the host cell as it does for hyaluronidase.

gonorrhoeae = experiment: patient with gonorrhoea treated orally; format: in vivo, human; conditions: 1.6 g orally
Experimental: (§1) When a patient, with a frankly discharging gonorrhoeae was given 1.6 g of 3-amino-4-hydroxybenzoic acid orally, the discharge ceased in 12 hours but recurred in the 24th hour after treatment.

[5] = absorption and excretion inferred from oral treatment of gonorrhoea patient; format: in vivo, human; conditions: 1.6 g
Experimental: as §1

safety study on chicken = format: in vivo; conditions: oral, 9 days, up to 400.6 mg/kg
Source text: A chicken of 500 g was used and 3-amino-4-hydroxybenzoic acid in water was forced down the esophagus using a plastic syringe over 9 days.

safety study on rabbit = format: in vivo; conditions: intraperitoneal, 9 days, up to 133.3 mg/kg
[6] = safety study on human volunteers; format: in vivo; conditions: 7 volunteers, oral; person 1: 200 mg stat and 200 mg tds x 2/52; person 3: 800 mg stat
Source text: Safety Study on Human Volunteers
Dose & Frequency of 3- Total 3-amino-4-
amino-4-hydroxybenzoic hydroxybenzoic acid
Person acid Intake mg/kg
Each person took 3-amino-4-hydroxybenzoic acid orally.

[7] = adverse effects in HIV/AIDS patients; format: in vivo, human
Source text: Our experience in using 3-amino-4-hydroxybenzoic acid to treat HIV/AIDS has shown only one non-uniform adverse effect. […] In the case of 3-amino-4-hydroxybenzoic acid, this occasional side effect can be averted by feeding before administration, giving a flavouring agent before administration or preparing the medicament in capsule form. The nausea is temporary. The medicament is preferably taken for approximately 28 days.

HIV [8] = format: in vivo
Experimental: Clinical observations on HIV/AIDS Patients Treated with 3-amino-4-hydroxybenzoic acid
Treatment was administered orally to each patient taking 200 mg of 3-amino-4-hydroxybenzoic acid tds for 14 days.

HIV [9] = experiment: T-cell observations after HIV/AIDS treatment (Example 4); format: in vivo
Experimental: Symptomatic and asymptomatic seropositive individuals were treated with 3-amino-4-hydroxybenzoic acid (200 mg tds orally) for two weeks. CD4 :CD8 ratios were taken before and three months after treatment. […] Based on its inherent ability to inactivate HIV in vitro it is probable that 3-amino-4-hydroxybenzoic acid suppresses or inactivates the HIV in affected individuals.
The individuals were taken randomly as they became available (3 male and 4 female). Their T-cell counts were taken before treatment and three months after treatment. They were given 3-amino-4-hydroxybenzoic acid as 200 mg tds orally and followed on daily basis as they took 3-amino-4-hydroxybenzoic acid for two weeks. Thereafter they were followed weekly for the first month after finishing the course of medicine and then monthly.

HIV [10] = experiment: T-cell counts of patients JE001-JE0015, once daily dosing (Example 5); format: in vivo
Experimental: These were made on patients JE001-JE0015 who received 200 mg of 3-amino-4-hydroxybenzoic acid orally only once per day for two weeks and whose T-cell counts were analysed after only 6 weeks.
Continuous study of viral load by quantitative PCR when available will show the optimum dose and duration of administration of 3-amino-4-hydroxybenzoic acid.
An explanation is that the CD4 cells which carry HIV die after 3-amino-4-hydroxybenzoic acid kills the virus in them. Later as the precursor cells form other CD4 s without HIV to destroy them, the total CD4 count will be found even higher than before treatment.

HIV [11] = experiment: trial based on clinical and haematological findings (Example 5); format: in vivo
Source text: In addition, trial based on clinical and haematological findings have shown the following observations.

HIV [12] = experiment: electron microscopy of patient blood (Example 6); format: in vivo; conditions: two patients, before treatment and 28 days after
Source text: (§2) Blood samples were taken for electron microscopy and HIV culture before and after treatment of two patients.

HIV [13] = experiment: HIV culture from patient blood (Example 6); format: in vivo
Source text: as §2

water solubility = format: physicochemical
hyaluronidase = conditions: acrosomal proteolytic enzyme of sperm; cited from earlier work
HIV [14] = format: in vivo; remark: listed apart in the source
HIV [15] = conditions: in presence of normal serum iron; cited from earlier work
HIV [16] = conditions: reported for AZT; cited from earlier work
[17] = 200 mg tds oral, 14 days, patient three (1)
[18] = 200 mg tds orally, two weeks, before vs three months after treatment
[19] = per patient, 200 mg tds orally, two weeks, three months after treatment
[20] = patient three (8), in 6 months of treatment

Nc1cc(C(=O)O)ccc1O [3-amino-4-hydroxybenzoic acid]
MIC (HIV [1]; Human immunodeficiency virus 1, HIV cultivated in human lymphocytes, read-out: minimum inhibitory concentration / minimum concentration inactivating cultivated HIV): 0.5 µg/mL (≈ 3.27 µM)
inactivation of cultivated HIV (HIV [1]; in vitro, cultivated HIV): completely inactivate cultivated HIV
adverse effect to the lymphocytes (human lymphocytes): without any adverse effect to the lymphocytes
Therapeutic Index [2]: 40,000
selectivity ratio [2]: 40000
antimicrobial activity (Herpes simplex): established
antimicrobial activity (HIV [3]): established
antimicrobial activity (Neisseria gonorrhoeae): established
antimicrobial activity (Treponema pallidum): established
antimicrobial activity (Escherchia coli): established
antimicrobial activity (Candida albicans): established
antimicrobial activity (Trichomona vapinalis): established
infectivity of HIV after dipping (HIV [4]): renders the virus uninfective
bacteriostatic effect (gonorrhoeae): bacteriostatic
time to cessation of gonorrhoeal discharge (gonorrhoeae): 12 h
absorption from the gut / excretion [5]: sufficiently absorbed from the gut; also recorded: well absorbed and excreted
adverse effects (safety study on chicken): no adverse effects observed
adverse effects (safety study on rabbit): no adverse effects observed
persons experiencing nausea [6]: Only persons 1 and 3 experienced nausea without vomiting
adverse effect ([7]; HIV/AIDS patients): nausea and vomiting in the very weak
side effects noted ([7]; chicken, rabbit, sheep and human volunteers): Only tolerable nausea and occasional vomiting
body weight after treatment (HIV [8]; [17]): 48 kg
haemoglobin after treatment (HIV [8]; [17]): 16%
lymphocytes (relative) after treatment (HIV [8]; [17]): 49%
body weight before treatment (HIV [8]; 200 mg tds oral, 14 days, patient three (1), baseline): 44 kg
clinical, haematological and weight gain assessment (HIV [8]; about 20 patients): found to improve
average weight gain (HIV [8]; average patient, within the first month): 5 kg
signs and symptoms (HIV [8]; patient five (3), after 2 weeks): the signs and symptoms were over
standing and walking unaided (HIV [8]; patient four (9)): By the third day they could stand and walk unaided
time until diarrhoea ceased (HIV [8]; patient four (9)): 24 h
vomiting and diarrhoea (HIV [8]; patient four (9)): over by the third day
health at follow-up (HIV [8]; patient four (9), 22.1.95 and May 19th 1995): in perfect health on 22.1.95
serum iron (HIV [8]; patient four (9), all along the time of treatment): normal
wounds healed, signs and symptoms over (HIV [8]; patient four (9), by end of second week): wounds had healed and all their signs and symptoms were over
haemoglobin rise (HIV [8]; patient four (9), by the sixth month): 1 g %
weight gain (HIV [8]; patient four (9), in six months): 1 kg
haemoglobin after treatment (HIV [8]; patient four (9), sixth month): 11.9%
oral ulcers, genital wounds and lymph node enlargement (HIV [8]; patient one (2)): over by the second week of treatment
time until able to go to the toilet and bathroom unaided (HIV [8]; patient one (2)): ≤ 5 days
body weight before treatment (HIV [8]; patient one (2), baseline): 41 kg
weight gain (HIV [8]; patient one (2), in 3 weeks): 2.5 kg
rashes and pigmentation (HIV [8]; patient six (6), in 2 weeks of treatment): The rashes subsided and the pigmentation returned to normal skin colour
time until signs and symptoms were over (HIV [8]; patient three (1)): six
haemoglobin before treatment (HIV [8]; patient three (1), baseline): 11.69%
lymphocytes (relative) before treatment (HIV [8]; patient three (1), baseline): 39%
body weight before treatment (HIV [8]; patient three (8), baseline): 44 kg
haemoglobin before treatment (HIV [8]; patient three (8), baseline): 12.1%
functional recovery (house work, shopping) (HIV [8]; patient two (7), in 5 days of treatment): able to do their house work, go for salary from their place of work and even go to the market for shopping
immunological improvement (HIV [9]; 200 mg tds orally, two weeks): there is immunological improvement
mean increase in CD4 (HIV [9]; 200 mg tds orally, two weeks, 7 patients): 208
CD4:CD8 ratio change (HIV [9]; [18]): rose
CD8 change (HIV [9]; [18]): decreased to varying levels in all of the individuals
Increase in CD4 after treatment (HIV [9]; 200 mg tds orally, two weeks, three months after treatment, per patient): 531 CD4/mm^3 and 72 CD4/mm^3 and 160 CD4/mm^3 and 40 CD4/mm^3 and 184 CD4/mm^3 and 102 CD4/mm^3 and 465 CD4/mm^3
CD4/CD8 Ratio Before Treatment (HIV [9]; per patient, baseline): 0.845 and 0.00 and 0.7 and 0.3 and 0.29 and 0.9
CD4 Count Before Treatment (HIV [9]; per patient, baseline): 561 CD4/mm3 and 50 CD4/mm3 and 650 CD4/mm3 and 460 CD4/mm3 and 300 CD4/mm3 and 1122 CD4/mm3 and 1014 CD4/mm3
CD4/CD8 Ratio After Treatment (HIV [9]; [19]): 1.632 and 0.06 and 2.2 and 0.2 and 0.564 and 0.78 and 1.11
CD4 Count After Treatment (HIV [9]; [19]): 1092 CD4/mm3 and 112 CD4/mm3 and 810 CD4/mm3 and 500 CD4/mm3 and 484 CD4/mm3 and 1326 CD4/mm3 and 1479 CD4/mm3
T-cell results (HIV [10]; 200 mg orally once per day, two weeks, analysed after 6 weeks, vs patient JC004 (200 mg tds)): The results were poor
CD4 count when counted earlier than three months (HIV [10]; earlier than three months): low figures even lower than before the start of treatment
time until anorexia subsides (HIV [11]; human, in vivo): ≤ 5 days
time until bed ridden patients can stand and do light work (HIV [11]; human, in vivo): ≤ 2 weeks
time until diarrhoea stops (HIV [11]; human, in vivo): 1-3
time until fever and weakness subside (HIV [11]; human, in vivo): ≤ 1 week
time until haemoglobin normalizes (HIV [11]; human, in vivo): ≤ 1 month
time until poor vision normalizes (HIV [11]; human, in vivo): ≤ 1 week
time until rashes and hyper pigmentation of scars subside (HIV [11]; human, in vivo): ≤ 5 days
time until sleep normalizes in intensity and rhythm (HIV [11]; human, in vivo): ≤ 2 days
time until vomiting ceases (HIV [11]; human, in vivo): ≤ 2 days
time until oral and anogenital ulcers heal (HIV [11]; human, in vivo, po): ≤ 1 week
average weight gain (HIV [11]; within the first month of treatment): 5 kg
HIV particles by electron microscopy (HIV [12]): HIV particles before treatment but not 28 days after treatment
eradication of HIV from patients' blood (HIV [13]; 3 mg/kg tds, 28 days): eradicates HIV from the patients blood
HIV culture growth (HIV [13]; two patients, before treatment and after 28 days of treatment): grew HIV but not after 28 days of treatment
solubility in water (water solubility): not readily soluble in water
inactivation of hyaluronidase (hyaluronidase): inactivates an achrosomal proteolytic enzyme hyaluronidase
hair (HIV [14]; patient four (9), by 6 weeks of treatment): their thin silk hair had reverted to the normal Afro type
body weight after treatment (HIV [14]; [20]): 53 kg
haemoglobin after treatment (HIV [14]; [20]): 14.9%

Cc1cn([C@H]2C[C@H](N=[N+]=[N-])[C@@H](CO)O2)c(=O)[nH]c1=O [AZT]
bone marrow depression and anaemia (HIV [15]): causes bone marrow depression and anaemia in presence of normal serum iron
reported equivalent increase in CD4 (HIV [16]): 81
